31 compounds from patent publication US20230096028A1, “BICYCLIC HETEROCYCLYL COMPOUNDS AND USES THEREOF” (Revolution Medicines, Inc., priority 2019, published 2023) can be followed below.

Each structure is given as a SMILES string. pIC50, pKd: −log10 of the molar value. Structures can show the parent of a compound that is named as a salt. Where two headings read alike, the source gives them in different places. Some results are limits rather than exact numbers.

For test [1], the system named is PC-9 cells (EGFR Ex19Del). In words: Potency Assay: pERK (SOS1 pERK IC50 Assay, AlphaLISA SureFire Ultra p-ERK1/2). It is filed as cell-based. The conditions noted are these: Homo sapiens, read-out: SOS1 pERK IC50. A digest of the protocol:
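Cellular pERK1/2 by AlphaLISA SureFire Ultra after 1 h compound exposure (37° C., highest concentration 10 μM, 3-fold steps, duplicates) of EGFR Ex19Del PC-9 cells seeded the day before. A 4-parameter fit of signal versus log concentration gives IC50.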

Test [2] addresses T1, SOS1 catalytic domain (residues 564-1049) (Homo sapiens, UniProt Q07889).
T1 sequence (Q07889 564-1049): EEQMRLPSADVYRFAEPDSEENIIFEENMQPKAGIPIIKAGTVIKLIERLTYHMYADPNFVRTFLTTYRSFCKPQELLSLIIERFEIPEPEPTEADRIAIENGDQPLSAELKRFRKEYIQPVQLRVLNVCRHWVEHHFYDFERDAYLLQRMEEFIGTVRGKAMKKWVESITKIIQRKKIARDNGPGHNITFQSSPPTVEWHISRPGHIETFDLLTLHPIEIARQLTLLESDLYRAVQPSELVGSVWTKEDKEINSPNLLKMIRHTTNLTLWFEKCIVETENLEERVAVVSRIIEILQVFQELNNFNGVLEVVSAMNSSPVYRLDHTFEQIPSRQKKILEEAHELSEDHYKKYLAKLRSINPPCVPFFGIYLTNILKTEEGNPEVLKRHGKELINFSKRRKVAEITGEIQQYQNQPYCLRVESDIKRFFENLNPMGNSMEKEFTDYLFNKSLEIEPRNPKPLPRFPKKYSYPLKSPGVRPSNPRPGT
Put plainly: Potency Assay: binding affinity to SOS1 using Surface Plasmon Resonance (SPR). The arrangement: SOS1 catalytic domain (residues 564-1049) immobilized on a sensor chip. The conditions noted are these: immobilized SOS1 catalytic domain (residues 564-1049), read-out: SOS1 SPR Equilibrium Kd. An outline of the steps:
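Kd was obtained by plotting binding response, taken just before association ended, versus compound concentration on a Biacore 8K. Compounds flowed at 50 μL/min over streptavidin-captured avi-SOS1 catalytic domain (~6000 RU), followed by buffer dissociation; HEPES 0.01 M/NaCl 0.15 M/0.05% P20 buffer, double-referenced.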

For test [3], the target named is T1, SOS1 catalytic domain (residues 564-1049). Put plainly: Mode of Action Assay: inhibition of SOS1 nucleotide exchange activity (SOS1 TR-FRET IC50 Assay).
Where [4] appears, read: PC-9 cells (EGFR Ex19Del), 1 hour incubation, AlphaLISA p-ERK1/2.

As to `C[C@@H](Nc1nc(Cl)nc2c1CN(C(=O)[C@@H]1CNCCO1)C2)c1cccc(C(F)(F)F)c1` [Example 278], the negative logarithm of the IC50 (pIC50) in test [1] (setting [4]) and in test [3] was more than 6.00 each time. Further, in test [2], the pKd is more than 6.40.

As to `C[C@@H](Nc1nc(Cl)nc2c1C[C@@H](N1CCOCC1)CC2)c1cccc(C(F)(F)CO)c1` [Example 436], the pIC50 in test [1] (setting [4]) and in test [3] was more than 6.00 each time. In test [2], the pKd is more than 6.40.

For the compound `CCC(Nc1nc(Cl)nc2c1CN(C(=O)N1CCOCC1)C2)c1cc(N)cc(C(F)(F)F)c1` (stereo not drawn) [Example 470, N-{1-[3-amino-5-(trifluoromethyl)phenyl]propyl}-2-chloro-6-(morpholine-4-carbonyl)-5H,6H,7H-pyrrolo[3,4-d]pyrimidin-4-amine], the pIC50 is more than 6.00 in test [1] (PC-9, 1 h) and more than 6.00 in test [3]. Moreover, the negative-log Kd (pKd) in test [2] was less than 6.40.

As for `C[C@@H](Nc1nc(C2CN(C)C2)nc2c1CN(C(=O)N1CCOCC1)C2)c1cccc(C(F)F)c1F` [Example 447, (R)-(4-((1-(3-(difluoromethyl)-2-fluorophenyl)ethyl)amino)-2-(1-methylazetidin-3-yl)-5,7-dihydro-6H-pyrrolo[3,4-d]pyrimidin-6-yl)(morpholino)methanone], the negative logarithm of the IC50 (pIC50) is less than 6.00 in test [1] (setting [4]) and more than 6.00 in test [3]. Further, the pKd in test [2] is more than 6.40.

On to `C[C@@H](Nc1nc(Cl)nc2c1CN(C(=O)C1CCN(C3COC3)CC1)C2)c1cccc(C(F)F)c1F` [Example 336], for which the pIC50 is less than 6.00 in test [1] (setting [4]) and more than 6.00 in test [3]. The negative-log Kd (pKd) in test [2] is more than 6.40.

Consider `C[C@@H](Nc1nc(Cl)nc2c1CN(C(=O)c1ccc(-n3ccnc3)cn1)CC2)c1cc(N)cc(C(F)(F)F)c1` [Example 250], for which the pIC50 in test [1] (setting [4]) and in test [3] was less than 6.00 each time. The negative-log Kd (pKd) in test [2] was less than 6.40.

In the case of `C[C@@H](Nc1nc(Cl)nc2c1CN(C(=O)C1(F)CCNCC1)C2)c1cc(N)cc(C(F)(F)F)c1` [Example 272], the pIC50 in test [1] (setting [4]) and in test [3] was more than 6.00 throughout. For the same compound, the pKd in test [2] was more than 6.40.

For the compound `C[C@@H](Nc1nc(Cl)nc2c1CN(S(=O)(=O)c1c[nH]cn1)CC2)c1cc(N)cc(C(F)(F)F)c1` [Example 458], the pIC50 in test [1] (setting [4]) and in test [3] was more than 6.00 in each case. The pKd in test [2] was more than 6.40.

As to `C[C@@H](Nc1nc(Cl)nc2c1CN(C(=O)N1CCOCC1)C2)c1cccc(C(F)(F)CN(C)C)c1` [Example 483, 2-chloro-N-[(1R)-1-{3-[2-(dimethylamino)-1,1-difluoroethyl]phenyl}ethyl]-6-(morpholine-4-carbonyl)-5H,6H,7H-pyrrolo[3,4-d]pyrimidin-4-amine], the values for the pIC50 in test [1] (setting [4]) and in test [3] were less than 6.00 and more than 6.00, respectively. The pKd in test [2] was more than 6.40.

Take `COc1ccc2c(c1)OCCN2C(=O)N1Cc2nc(Cl)nc(N[C@H](C)c3cc(N)cc(C(F)(F)F)c3)c2C1` [Example 140]: the pIC50 in test [1] (setting [4]) was more than 6.00; in test [3] it was less than 6.00. Further, the pKd in test [2] was more than 6.40.

As to `C[C@@H](Nc1nc(Cl)nc2c1CN(C(=O)C1(C)CCOCC1)C2)c1cccc(C(F)(F)CO)c1` [Example 240], the pIC50 in test [1] (setting [4]) and in test [3] was more than 6.00 each time. Moreover, the pKd in test [2] is more than 6.40.

Regarding `C[C@@H](Nc1nc(Cl)nc2c1CN(C(=O)C1CNCCOC1)C2)c1cccc(C(F)F)c1F` (stereo partly drawn) [Example 293], the pIC50 in test [1] (setting [4]) and in test [3] was more than 6.00 in each case. The pKd in test [2] was more than 6.40.

`C[C@@H](Nc1nc(Cl)nc2c1CN(C(=O)N1CCCNCC1)C2)c1cccc(C(F)(F)F)c1` [Example 377]: the pIC50 in test [1] (setting [4]) and in test [3] was more than 6.00 throughout. Moreover, in test [2], the pKd was more than 6.40.

Consider `C[C@@H](Nc1nc(Cl)nc2c1CN(C(=O)N1CCCNCC1)C2)c1cccc(C(F)F)c1F` [Example 400], for which the pIC50 in test [1] (setting [4]) and in test [3] was more than 6.00 each time. In addition, the negative logarithm of the Kd (pKd) in test [2] was more than 6.40.

As to `CC(=O)N1CCN(C(=O)N2Cc3nc(Cl)nc(N[C@H](C)c4cccc(C(F)(F)F)c4)c3C2)CC1` [Example 381], the pIC50 in test [1] (setting [4]) and in test [3] was more than 6.00 each time. Also, in test [2], the pKd is more than 6.40.

In the case of `CC(=O)NC1(C(=O)N2Cc3nc(Cl)nc(N[C@H](C)c4cccc(C(F)F)c4F)c3C2)CCCCC1` [Example 332], the pIC50 in test [1] (setting [4]) was less than 6.00; in test [3], more than 6.00. Moreover, the pKd in test [2] was less than 6.40.

On to `C[C@@H](Nc1ncnc2c1CC(N1CC3(COC3)C1)CC2)c1cccc(C(F)(F)CO)c1` (stereo partly drawn) [Example 439], for which the negative logarithm of the IC50 (pIC50) in test [1] (setting [4]) and in test [3] was more than 6.00 throughout. Further, the negative-log Kd (pKd) in test [2] is more than 6.40.

Take `COC1(C(=O)N2Cc3nc(Cl)nc(N[C@H](C)c4cccc(C(F)F)c4F)c3C2)CN(C)C1` [Example 324]: the pIC50 in test [1] (setting [4]) and in test [3] was more than 6.00 in each case. For the same compound, the pKd in test [2] is more than 6.40.

As to `C[C@@H](Nc1nc(Cl)nc2c1CN(S(=O)(=O)N1CC3CCC(C1)O3)CC2)c1cc(N)cc(C(F)(F)F)c1` [Example 180], the pIC50 in test [1] (setting [4]) and in test [3] was more than 6.00 throughout. In addition, the pKd in test [2] was more than 6.40.

For the compound `C[C@@H](Nc1nc(Cl)nc2c1CN(C(=O)c1ccncn1)CC2)c1cc(N)cc(C(F)(F)F)c1` [Example 233], the pIC50 in test [1] (setting [4]) and in test [3] was less than 6.00 in each case. The pKd in test [2] is less than 6.40.

Take `COC1(C(=O)N2Cc3nc(Cl)nc(N[C@H](C)c4cccc(C(F)F)c4F)c3C2)CCOCC1` [Example 330]: the pIC50 in test [1] (setting [4]) and in test [3] was more than 6.00 each time. In addition, in test [2], the pKd was more than 6.40.

With `C[C@@H](Nc1nc(Cl)nc2c1CN(C(=O)N1CCNC(=O)C1)C2)c1cccc(C(F)F)c1F` [Example 403], the pIC50 in test [1] (setting [4]) and in test [3] was more than 6.00 in each case. Also, in test [2], the negative logarithm of the Kd (pKd) is more than 6.40.

Regarding `C[C@@H](Nc1nc(Cl)nc2c1CN(C(=O)N1CCOC(F)(F)C1)C2)c1cccc(C(F)F)c1F` [Example 411], the pIC50 in test [1] (setting [4]) and in test [3] was more than 6.00 in each case. The pKd in test [2] is more than 6.40.

In the case of `C[C@@H](Nc1nc(Cl)nc2c1CC(N1CCOCC1)CC2)c1cccc(C(F)(F)F)c1` (stereo partly drawn) [Example 435], the pIC50 in test [1] (setting [4]) was less than 6.00; in test [3] it was more than 6.00. Besides, the pKd in test [2] was more than 6.40.

Turning to `C[C@@H](Nc1nc(Cl)nc2c1CN(S(=O)(=O)C1CCCNC1)C2)c1cc(N)cc(C(F)(F)F)c1` (stereo partly drawn) [Example 49], the pIC50 in test [1] (setting [4]) and in test [3] was more than 6.00 throughout. In test [2], the pKd is more than 6.40.

In the case of `C[C@@H](Nc1nc(Cl)nc2c1C[N+](=C(N(C)C)N(C)C)C2)c1cccc(C(F)F)c1F` [Example 529, 1-[2-chloro-4-[[(1R)-1-[3-(difluoromethyl)-2-fluoro-phenyl]ethyl]amino]-5,7-dihydropyrrolo[3,4-d]pyrimidin-6-ium-6-ylidene]-N,N,N′,N′-tetramethyl-methanediamine formate], the pIC50 is less than 6.00 in test [1] (PC-9, 1 h) and more than 6.00 in test [3]. Also, the pKd in test [2] was more than 6.40.

For `C[C@@H](Nc1nc(Cl)nc2c1CN(C(=O)N1CCOCC1)C2)c1cccc(C(C)(F)F)c1F` [Example 478, 2-chloro-N-[(1R)-1-[3-(1,1-difluoroethyl)-2-fluorophenyl]ethyl]-6-(morpholine-4-carbonyl)-5H,6H,7H-pyrrolo[3,4-d]pyrimidin-4-amine], the pIC50 in test [1] (setting [4]) and in test [3] was more than 6.00 in each case. In test [2], the pKd is more than 6.40.

Take `C[C@@H](Nc1ncnc2c1CC(N1CC3(COC3)C1)CC2)c1cccc(C(F)F)c1F` (stereo partly drawn) [Example 442]: the pIC50 in test [1] (setting [4]) is less than 6.00; in test [3], more than 6.00. Further, the pKd in test [2] is more than 6.40.

On to `C[C@@H](Nc1nc(Cl)nc2c1CN(C(=O)c1cccc(Cl)n1)C2)c1cc(N)cc(C(F)(F)F)c1` [Example 87], for which the pIC50 in test [1] (setting [4]) is more than 6.00; in test [3] it was less than 6.00. Besides, the negative-log Kd (pKd) in test [2] is less than 6.40.

As to `C[C@@H](Nc1nc(Cl)nc2c1CN(C(=O)N1CCN(C3COC3)CC1)C2)c1cccc(C(F)F)c1F` [Example 383], the pIC50 in test [1] (setting [4]) and in test [3] was more than 6.00 in each case. Also, the pKd in test [2] was more than 6.40.

For `C[C@@H](Nc1nc(Cl)nc2c1CN(C(=O)C1C3COCC31)C2)c1cc(N)cc(C(F)(F)F)c1` (stereo partly drawn) [Example 94], the negative-log IC50 (pIC50) in test [1] (setting [4]) and in test [3] was more than 6.00 each time. The pKd in test [2] is more than 6.40.
